The values below are quoted from earlier work in US8569271B2 (Laboratorios del Dr. Esteve, S.A., priority 2009, dated 2013).

Each structure is given as a SMILES string.

In the case of `Cc1ccc(-c2cc(C(F)(F)F)nn2-c2ccc(S(N)(=O)=O)cc2)cc1` [celecoxib, 4-[5-(4-methylphenyl)-3-(trifluoromethyl)-pyrazol-1-yl]-benzenesulfonamide], the solubility in water result is “only slightly soluble in water”.
